Measurements from patent US20190350909A1, “COMPOSITIONS AND METHODS FOR MODULATING HAIR GROWTH” (priority 2018, published 2019).
“Also recorded” adds a separate entry of the source.

Legend:
Format in all cases: in vivo, C57BL/6 mice
[1] = system: hair cycle; experiment: Hair cycle analysis after topical treatment of shaved dorsal skin of telogen-stage mice; details: topical treatment during telogen, macroscopic and H&E follicle morphology (FIG. 2A-2C)
Procedure: (§1) Wildtype male and female 49-day old C57BL/6 mice were obtained from Jackson Laboratories for all topical experiments. All animals were maintained in UCLA's Division of Laboratory Medicine (DLAM)-approved pathogen-free barrier facilities and procedures were performed using protocols that adhere to the standards of the UCLA Animal Research Committee (ARC), Office of Animal Research Oversight (OARO), and the National Institutes of Health (NIH).
(§2) All drugs were suspended in DMSO and aliquoted at approximately 5 times IC50 or EC50 for the purposes of penetrating the epidermal barrier upon in vivo application. Aliquots were then mixed with the appropriate volume of Premium Lecithin Organogel (PLO) Base (Transderma Pharmaceuticals Inc.) and topically applied onto the shaved dorsal skin of 49 day old telogen-stage mice. Three experiment timepoints were used: acute treatment (two doses across 48 hours), 1 week treatment (three doses across five days) or long-term studies (one dose three times a week for approximately 1.5 weeks). Full-thickness dorsal skin was collected for histological analysis, cryosectioning, RNA isolation, and/or for epidermal stem cell isolation according to well-established FACS protocol.
Hair cycles were assessed macroscopically by observational and photographic documentation. A scale was established to grade hair cycle stage: 1) telogen (pink, white skin when dorsally shaved); 2) pigmentation (broad blue/grey pigment spots/patches on shaved dorsal area); 3) hair growth (dark pigmentation coupled with small patches of fur); 4) anagen (dark, full patches of fur within dorsal area) in relation to number of doses and elapsed time of treatment. H&E images of all treatment conditions were imaged at 20× magnification to assess morphological changes in control and treated skin. Hair cycle stages were also evaluated by follicular morphology into respective telogen, telogen-to-anagen transition, or anagen categories.
A set of full-thickness skin samples were obtained from post-mortem tissue harvesting, fixed overnight in 4% paraformaldehyde, and then dehydrated for paraffin embedding and slide generation; hematoxylin and eosin staining according to standard protocol. For immunohistochemistry, formalin-fixed, paraffin-embedded tissue slides were cleared and rehydrated through a series of ethanol washes. Antigen retrieval (20 min in pressure cooker, microwaved at 100 power) was performed with 10 mM citrate. Slides were incubated in hydrogen peroxide (30 min at 4 C) and then blocked with 10% goat serum/0.1% tween for 1 hour at room temperature. Primary antibodies were added and incubated overnight. The following antibodies were used—rabbit pCreb (Cell Signaling 9198, 1:800); rabbit Sox9 (Abcam 185966, 1:800); rabbit Ki67 sp6 (Abcam 16667, 1:50); rabbit PCNA (Cell Signaling 13110, 1:700); rabbit cFos (Abcam 7963, 1:100). Sections were washed the following day with 0.1% PBST and incubated with rabbit secondary HRP-labeled polymer (Dako) for 1 hour at room temperature, and then quickly washed with 0.1% PBST and PBS. AEC chromogen (Vector) was used for the colometric development reaction. Slides were then briefly counterstained with hemotoxylin, mounted with Faramount Aqueous Mounting Media (Dako) and sealed for subsequent visualization by light microscopy.
Bright-field immunohistochemistry and hematoxylin/eosin-stained images were captured using an Olympus BX51 light microscope at 20× magnification or 40× using oil immersion.

[2] = system: Creb (pCreb); experiment: Immunohistochemistry of treated skin for Creb signaling, HFSC and proliferation markers
Procedure: as §1
as §2, with “protocol. […]” for “protocol.”

[3] = system: lactate dehydrogenase (Ldh); experiment: Ldh activity assay (in situ and plate reader) on treated skin/epidermis; details: epidermis isolated from treated male or female animals (FIG. 4A)
Procedure: as §1, §2

[4] = system: Ldha protein, pCreb; experiment: Western blot of epidermis from treated animals for pCreb and Ldha protein; details: epidermis from treated animals (FIG. 4C)
Procedure: Wildtype male and female 49-day old C57BL/6 mice were obtained from Jackson Laboratories for all topical experiments. All animals were maintained in UCLA's Division of Laboratory Medicine (DLAM)-approved pathogen-free barrier facilities and procedures were performed using protocols that adhere to the standards of the UCLA Animal Research Committee (ARC), Office of Animal Research Oversight (OARO), and the National Institutes of Health (NIH). […] All drugs were suspended in DMSO and aliquoted at approximately 5 times IC50 or EC50 for the purposes of penetrating the epidermal barrier upon in vivo application. […] Three experiment timepoints were used: acute treatment (two doses across 48 hours), 1 week treatment (three doses across five days) or long-term studies (one dose three times a week for approximately 1.5 weeks). Full-thickness dorsal skin was collected for histological analysis, cryosectioning, RNA isolation, and/or for epidermal stem cell isolation according to well-established FACS protocol.

Row | relative Ldh activity in lysed epidermis [3] | SMILES | effect on hair cycle progression / reentry into anagen [1] | activation of Creb (pCreb) by immunohistochemistry ([2]; acute 48 hours topical treatment, HFSCs and IFE (FIG. 3B)) | canonical Creb target expression (cFos staining) ([2]; acute treatment (FIG. 3B)) | effect on hair cycle progression / reentry into anagen ([1]; listed as H-89) | Creb activation (pCreb) (western blot) [4]
1 | high Ldh activity | COc1ccccc1NC(=O)CSc1nc2c(cc1C#N)=CC1OCCOC1C=2 (stereo not shown) [#44] | accelerated reentry into anagen; also recorded: strongly accelerate the hair cycle; also recorded: accelerated hair growth | activation of Creb (pCreb) in HFSCs (and IFE) | induced levels of transcript for canonical Creb targets | – | –
2 | – | COc1ccc(NC(=O)CSc2nc3c(cc2C#N)=CC2OCCOC2C=3)c(OC)c1 (stereo not shown) [#61] | accelerated reentry into anagen; also recorded: strongly accelerate the hair cycle; also recorded: accelerated hair growth | – | – | – | –
3 | – | CCOc1ccc(OCC)c(NC(=O)CSc2nc3c(cc2C#N)=CC2OCCOC2C=3)c1 (stereo not shown) [#62] | strongly accelerate the hair cycle | – | – | – | –
4 | did not demonstrate altered Ldh activity | O=S(=O)(NCCNC/C=C/c1ccc(Br)cc1)c1cccc2cnccc12 [H89, reference compound] | slowed hair cycle progression; also recorded: delays reentry into anagen; also recorded: slowed the hair cycle dramatically | – | – | delayed reentry into anagen | inhibition of Creb
